Laboratory results: patent US6358885B1, “Substituted phenylheterocyclic herbicides” (Mississippi State University, priority 1992, dated 2002)

Tests used:
[1] = test system: morningglory; experiment: Test B preemergence/postemergence greenhouse plant response rating 0 to 10; type: in vivo, Ipomoea hederacea; conditions: 0 to 10 scale
Method in brief: (§1)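 Test chemicals, dissolved in a non-phytotoxic solvent, were applied to soil at planting and, at the same time, over foliage of seedlings at the one to four leaf stage.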

[2] = test system: blackgrass; experiment: Test C preemergence/postemergence greenhouse plant response rating 0 to 100; type: in vivo, Alopecurus myosuroides; conditions: POSTEMERGENCE; for Plant response rating, Blackgrass: 0 to 100 scale
Method in brief: (§2)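 Compounds in non-phytotoxic solvent applied preemergence to sandy loam one day after planting, postemergence at the 1–4 leaf stage, or to ~2.5 cm floodwater over silt loam.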

[3] = test system: rice; experiment: Test B preemergence/postemergence greenhouse plant response rating 0 to 10; type: in vivo, Oryza sativa; conditions: 0 to 10 scale
Method in brief: as §1

[4] = test system: umbrella sedge; experiment: Test C flood test plant response rating 0 to 100; type: in vivo, Cyperus difformis; conditions: for Plant response rating Umbrella sedge: flood test species listed under POSTEMERGENCE, 0 to 100 scale
Excerpt: (§3) The compounds evaluated in this test were formulated in a non-phytoxic solvent and applied to the soil surface before plant seedlings emerged (preemergence application), to water that covered the soil surface (flood application), and to plants that were in the one-to-four leaf stage (postemergence application). A sandy loam soil was used for the preemergence and postemergence tests, while a silt loam soil was used in the flood test. Water depth was approximately 2.5 cm for the flood test and was maintained at this level for the duration of the test. Plant species in the preemergence and postemergence tests consisted of barley (Hordeum vulgare), bedstraw (Galium aparine), blackgrass (Alopecurus myosuroides), chickweed (Stellaria media), corn (Zea mays), cotton (Gossypium hirsutum), crabgrass (Digitaria sanguinalis), downy brome (Bromus tectorum), giant foxtail (Setaria faberii), lambsquarters (Chenopodium album), morningglory (Ipomoea hederacea), pigweed ([…]), rape (Brassica napus), ryegrass (Lolium multiflorum), sorghum (Sorghum bicolor), soybean (Glycine max), speedwell (Veronica persica), sugar beet (Beta vulgaris), velvetleaf (Abutilon theophrasti), wheat (Triticum aestivum), wild buckwheat (Polygonum convolvulus), and wild oat (Avena fatua). All plant species were planted one day before application of the compound for the preemergence portion-of this test. Plantings of these species were adjusted to produce plants of appropriate size for the post-emergence portion of the test. […] All plant species were grown using normal greenhouse practices. Visual evaluations of injury expressed on treated plants, when compared to untreated controls, were recorded approximately fourteen to twenty one days after application of the test compound. […] A dash (-) response means no test result.

[5] = test system: rape; experiment: Test C preemergence/postemergence greenhouse plant response rating 0 to 100; type: in vivo, Brassica napus; conditions: POSTEMERGENCE; for Plant response rating, Rape: 0 to 100 scale
Method in brief: as §2

[6] = test system: wild oat; experiment: Test B preemergence/postemergence greenhouse plant response rating 0 to 10; type: in vivo, Avena fatua; conditions: 0 to 10 scale
Method in brief: as §1

[7] = test system: sorghum; experiment: as above; type: in vivo, Sorghum bicolor; conditions: 0 to 10 scale
Method in brief: as §1

[8] = test system: barnyardgrass; experiment: as above; type: in vivo, Echinochloa crus-galli; conditions: 0 to 10 scale
Method in brief: as §1

[9] = test system: wheat; experiment: as above; type: in vivo, Triticum aestivum; conditions: 0 to 10 scale
Method in brief: as §1

[10] = test system: rice; experiment: Test C flood test plant response rating 0 to 100; type: in vivo, Oryza sativa; conditions: for Plant response rating Rice Japonica: flood test species listed under POSTEMERGENCE, 0 to 100 scale
Excerpt: as §3

[11] = test system: cotton; experiment: Test B preemergence/postemergence greenhouse plant response rating 0 to 10; type: in vivo, Gossypium hirsutum; conditions: 0 to 10 scale
Method in brief: as §1

[12] = test system: cocklebur; experiment: as above; type: in vivo, Xanthium pensylvanicum; conditions: 0 to 10 scale
Method in brief: as §1

[13] = test system: crabgrass; experiment: Test C preemergence/postemergence greenhouse plant response rating 0 to 100; type: in vivo, Digitaria sanguinalis; conditions: POSTEMERGENCE; for Plant response rating, Crabgrass: 0 to 100 scale
Method in brief: as §2

[14] = POSTEMERGENCE section, flood test, Rate 4 g/ha
[15] = Rate 16 g/ha, under POSTEMERGENCE head (flood test species)

## CC(C)OC(=O)c1cc(-c2nn3c(c2Cl)CCCC3)c(F)cc1Cl [Compound 44]
[1]; POSTEMERGENCE, Rate 50 g/ha
  Plant response rating, Morningglory: 9
[1]; PREEMERGENCE, Rate 50 g/ha
  Plant response rating, Morningglory: 7
[1]; Rate 200 g/ha, POSTEMERGENCE
  Plant response rating, Morningglory: 10
[1]; Rate 200 g/ha, PREEMERGENCE
  Plant response rating, Morningglory: 10
[2]; 62 g/ha
  Plant response rating, Blackgrass: 60
[2]; 250 g/ha
  Plant response rating, Blackgrass: 80
[2]; Rate 4 g/ha
  Plant response rating (0 to 100), Blackgrass: 30
[2]; Rate 16 g/ha
  Plant response rating (0 to 100), Blackgrass: 40
[3]; POSTEMERGENCE, Rate 50 g/ha
  Plant response rating, Rice: 5
[3]; PREEMERGENCE, Rate 50 g/ha
  Plant response rating, Rice: 1
[3]; Rate 200 g/ha, POSTEMERGENCE
  Plant response rating, Rice: 9
[3]; Rate 200 g/ha, PREEMERGENCE
  Plant response rating, Rice: 2
[4]; [14]
  Plant response rating (0 to 100), Umbrella sedge: 30
[4]; [15]
  Plant response rating (0 to 100), Umbrella sedge: 60
[4]; 62 g/ha
  Plant response rating Umbrella sedge: 80
[4]; 250 g/ha
  Plant response rating Umbrella sedge: 100
[5]; 62 g/ha
  Plant response rating, Rape: 100
[5]; 250 g/ha
  Plant response rating, Rape: 100
[5]; Rate 4 g/ha
  Plant response rating (0 to 100), Rape: 40
[5]; Rate 16 g/ha
  Plant response rating (0 to 100), Rape: 70
[6]; POSTEMERGENCE, Rate 50 g/ha
  Plant response rating, Wild oat: 5
[6]; PREEMERGENCE, Rate 50 g/ha
  Plant response rating, Wild oat: 4
[6]; Rate 200 g/ha, POSTEMERGENCE
  Plant response rating, Wild oat: 8
[7]; POSTEMERGENCE, Rate 50 g/ha
  Plant response rating, Sorghum: 4
[7]; PREEMERGENCE, Rate 50 g/ha
  Plant response rating, Sorghum: 1
[7]; Rate 200 g/ha, POSTEMERGENCE
  Plant response rating, Sorghum: 5
[7]; Rate 200 g/ha, PREEMERGENCE
  Plant response rating, Sorghum: 2
[8]; POSTEMERGENCE, Rate 50 g/ha
  Plant response rating, Barnyardgrass: 8
[8]; POSTEMERGENCE, Rate 200 g/ha
  Plant response rating, Barnyardgrass: 10
[8]; PREEMERGENCE, Rate 50 g/ha
  Plant response rating, Barnyardgrass: 5
[8]; Rate 200 g/ha, PREEMERGENCE
  Plant response rating, Barnyardgrass: 8
[9]; POSTEMERGENCE, Rate 50 g/ha
  Plant response rating, Wheat: 6
[9]; PREEMERGENCE, Rate 50 g/ha
  Plant response rating, Wheat: 3
[9]; Rate 200 g/ha, POSTEMERGENCE
  Plant response rating, Wheat: 6
[9]; Rate 200 g/ha, PREEMERGENCE
  Plant response rating, Wheat: 3
[10]; [14]
  Plant response rating (0 to 100), Rice Japonica: 10
[10]; [15]
  Plant response rating (0 to 100), Rice Japonica: 30
[10]; 62 g/ha
  Plant response rating Rice Japonica: 60
[10]; 250 g/ha
  Plant response rating Rice Japonica: 85
[11]; POSTEMERGENCE, Rate 50 g/ha
  Plant response rating, Cotton: 10
[11]; POSTEMERGENCE, Rate 200 g/ha
  Plant response rating, Cotton: 10
[11]; PREEMERGENCE, Rate 50 g/ha
  Plant response rating, Cotton: 1
[11]; Rate 200 g/ha, PREEMERGENCE
  Plant response rating, Cotton: 8
[12]; POSTEMERGENCE, Rate 50 g/ha
  Plant response rating, Cocklebur: 9
[12]; POSTEMERGENCE, Rate 200 g/ha
  Plant response rating, Cocklebur: 10
[12]; PREEMERGENCE, Rate 50 g/ha
  Plant response rating, Cocklebur: 6
[12]; Rate 200 g/ha, PREEMERGENCE
  Plant response rating, Cocklebur: 9
[13]; 62 g/ha
  Plant response rating, Crabgrass: 40
[13]; 250 g/ha
  Plant response rating, Crabgrass: 50
[13]; Rate 4 g/ha
  Plant response rating (0 to 100), Crabgrass: 20
[13]; Rate 16 g/ha
  Plant response rating (0 to 100), Crabgrass: 30

## CCC(C)Oc1cc(-c2nn3c(c2Cl)CCCC3)c(F)cc1Cl (centres unmarked) [Compound 48]
[1]; POSTEMERGENCE, Rate 50 g/ha
  Plant response rating, Morningglory: 10
[1]; PREEMERGENCE, Rate 50 g/ha
  Plant response rating, Morningglory: 1
[1]; Rate 200 g/ha, POSTEMERGENCE
  Plant response rating, Morningglory: 10
[1]; Rate 200 g/ha, PREEMERGENCE
  Plant response rating, Morningglory: 3
[2]; 62 g/ha
  Plant response rating, Blackgrass: 50
[2]; 250 g/ha
  Plant response rating, Blackgrass: 60
[2]; Rate 4 g/ha
  Plant response rating (0 to 100), Blackgrass: 20
[2]; Rate 16 g/ha
  Plant response rating (0 to 100), Blackgrass: 30
[3]; POSTEMERGENCE, Rate 50 g/ha
  Plant response rating, Rice: 3
[3]; PREEMERGENCE, Rate 50 g/ha
  Plant response rating, Rice: 1
[3]; Rate 200 g/ha, POSTEMERGENCE
  Plant response rating, Rice: 8
[3]; Rate 200 g/ha, PREEMERGENCE
  Plant response rating, Rice: 2
[4]; [14]
  Plant response rating (0 to 100), Umbrella sedge: 10
[4]; [15]
  Plant response rating (0 to 100), Umbrella sedge: 10
[4]; 62 g/ha
  Plant response rating Umbrella sedge: 40
[4]; 250 g/ha
  Plant response rating Umbrella sedge: 70
[5]; 62 g/ha
  Plant response rating, Rape: 50
[5]; 250 g/ha
  Plant response rating, Rape: 90
[5]; Rate 4 g/ha
  Plant response rating (0 to 100), Rape: 30
[5]; Rate 16 g/ha
  Plant response rating (0 to 100), Rape: 30
[6]; POSTEMERGENCE, Rate 50 g/ha
  Plant response rating, Wild oat: 4
[6]; PREEMERGENCE, Rate 50 g/ha
  Plant response rating, Wild oat: 0
[6]; Rate 200 g/ha, POSTEMERGENCE
  Plant response rating, Wild oat: 6
[7]; POSTEMERGENCE, Rate 50 g/ha
  Plant response rating, Sorghum: 4
[7]; PREEMERGENCE, Rate 50 g/ha
  Plant response rating, Sorghum: 0
[7]; Rate 200 g/ha, POSTEMERGENCE
  Plant response rating, Sorghum: 6
[7]; Rate 200 g/ha, PREEMERGENCE
  Plant response rating, Sorghum: 1
[8]; POSTEMERGENCE, Rate 50 g/ha
  Plant response rating, Barnyardgrass: 4
[8]; POSTEMERGENCE, Rate 200 g/ha
  Plant response rating, Barnyardgrass: 8
[8]; PREEMERGENCE, Rate 50 g/ha
  Plant response rating, Barnyardgrass: 2
[8]; Rate 200 g/ha, PREEMERGENCE
  Plant response rating, Barnyardgrass: 3
[9]; POSTEMERGENCE, Rate 50 g/ha
  Plant response rating, Wheat: 5
[9]; PREEMERGENCE, Rate 50 g/ha
  Plant response rating, Wheat: 0
[9]; Rate 200 g/ha, POSTEMERGENCE
  Plant response rating, Wheat: 6
[9]; Rate 200 g/ha, PREEMERGENCE
  Plant response rating, Wheat: 2
[10]; [14]
  Plant response rating (0 to 100), Rice Japonica: 10
[10]; [15]
  Plant response rating (0 to 100), Rice Japonica: 20
[10]; 62 g/ha
  Plant response rating Rice Japonica: 30
[10]; 250 g/ha
  Plant response rating Rice Japonica: 60
[11]; POSTEMERGENCE, Rate 50 g/ha
  Plant response rating, Cotton: 10
[11]; POSTEMERGENCE, Rate 200 g/ha
  Plant response rating, Cotton: 10
[11]; PREEMERGENCE, Rate 50 g/ha
  Plant response rating, Cotton: 0
[11]; Rate 200 g/ha, PREEMERGENCE
  Plant response rating, Cotton: 9
[12]; POSTEMERGENCE, Rate 50 g/ha
  Plant response rating, Cocklebur: 7
[12]; POSTEMERGENCE, Rate 200 g/ha
  Plant response rating, Cocklebur: 9
[12]; Rate 200 g/ha, PREEMERGENCE
  Plant response rating, Cocklebur: 0
[13]; 62 g/ha
  Plant response rating, Crabgrass: 30
[13]; 250 g/ha
  Plant response rating, Crabgrass: 40
[13]; Rate 4 g/ha
  Plant response rating (0 to 100), Crabgrass: 10
[13]; Rate 16 g/ha
  Plant response rating (0 to 100), Crabgrass: 20
